From patent publication US9648880B2, “Antifungal agents and uses thereof” (University of Massachusetts, priority 2012, dated 2017)
“And” between values parts separate entries of the source, which are not always exact repeats. Equal values may be shown once.

Legend:
Rtt109-Vps75 = target: T1, Rtt109-Vps75 (Saccharomyces cerevisiae, UniProt Q07794); test: HAT-ThioGlo1 time course assay, Rtt109-Vps75; format: biochemical, S. cerevisiae; settings: IC50, 50 nM Rtt109-Vps75, 15 μM H3n21 peptide, 30 μM Ac-CoA
T1 construct: 6xHis (on one of the two proteins of the complex); made in house; host or cells: bacteria
T1 sequence (Q07794 1-436): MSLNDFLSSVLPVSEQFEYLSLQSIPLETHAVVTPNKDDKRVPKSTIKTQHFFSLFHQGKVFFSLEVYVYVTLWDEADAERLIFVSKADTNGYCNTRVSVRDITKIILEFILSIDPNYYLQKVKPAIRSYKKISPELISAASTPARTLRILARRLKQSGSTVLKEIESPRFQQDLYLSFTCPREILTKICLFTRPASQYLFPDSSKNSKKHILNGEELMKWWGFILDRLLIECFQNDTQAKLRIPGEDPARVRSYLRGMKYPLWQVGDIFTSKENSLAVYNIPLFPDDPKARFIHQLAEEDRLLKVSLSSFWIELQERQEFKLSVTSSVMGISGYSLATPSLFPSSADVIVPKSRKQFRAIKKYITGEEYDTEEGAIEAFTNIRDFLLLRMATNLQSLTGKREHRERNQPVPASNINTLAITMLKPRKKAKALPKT
T1 sequence (P53853 1-264 partner): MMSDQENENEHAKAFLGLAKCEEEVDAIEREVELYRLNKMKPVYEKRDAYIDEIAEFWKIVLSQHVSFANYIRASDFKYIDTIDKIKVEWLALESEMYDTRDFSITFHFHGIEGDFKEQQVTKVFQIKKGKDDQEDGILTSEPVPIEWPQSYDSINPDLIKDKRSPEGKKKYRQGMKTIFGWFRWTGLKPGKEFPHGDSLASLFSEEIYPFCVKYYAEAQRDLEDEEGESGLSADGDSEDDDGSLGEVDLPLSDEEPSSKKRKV

Gcn5 = target: T2, Gcn5 (Saccharomyces cerevisiae, UniProt Q03330); test: HAT-ThioGlo1 time course assay, Gcn5; format: biochemical, S. cerevisiae; settings: up to 100 μM
T2 construct: 6xHis (N); made in house; host or cells: BL21 E. coli
T2 sequence (Q03330 whole entry): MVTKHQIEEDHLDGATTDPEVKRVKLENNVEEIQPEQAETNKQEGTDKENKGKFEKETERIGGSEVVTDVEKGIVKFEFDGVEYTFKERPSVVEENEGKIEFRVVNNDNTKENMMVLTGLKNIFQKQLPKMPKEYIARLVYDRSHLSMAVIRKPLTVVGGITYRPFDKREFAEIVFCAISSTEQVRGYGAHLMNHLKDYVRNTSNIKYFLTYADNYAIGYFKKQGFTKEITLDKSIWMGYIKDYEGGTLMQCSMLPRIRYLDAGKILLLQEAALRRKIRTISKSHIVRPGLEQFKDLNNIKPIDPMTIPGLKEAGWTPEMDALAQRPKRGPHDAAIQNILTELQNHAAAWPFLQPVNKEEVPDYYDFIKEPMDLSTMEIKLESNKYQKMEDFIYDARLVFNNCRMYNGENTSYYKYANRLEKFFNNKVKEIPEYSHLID

p300 = target: T3, p300 (Homo sapiens, UniProt Q09472); test: HAT-ThioGlo1 time course assay, p300; format: biochemical; settings: up to 100 μM
T3 construct: p300 catalytic domain (p300 amino acids 1195-1810; Fan, 2010); 6xHis (N); FLAG (N); made in house; host or cells: BL21 E. coli
T3 sequence (Q09472 1195-1810): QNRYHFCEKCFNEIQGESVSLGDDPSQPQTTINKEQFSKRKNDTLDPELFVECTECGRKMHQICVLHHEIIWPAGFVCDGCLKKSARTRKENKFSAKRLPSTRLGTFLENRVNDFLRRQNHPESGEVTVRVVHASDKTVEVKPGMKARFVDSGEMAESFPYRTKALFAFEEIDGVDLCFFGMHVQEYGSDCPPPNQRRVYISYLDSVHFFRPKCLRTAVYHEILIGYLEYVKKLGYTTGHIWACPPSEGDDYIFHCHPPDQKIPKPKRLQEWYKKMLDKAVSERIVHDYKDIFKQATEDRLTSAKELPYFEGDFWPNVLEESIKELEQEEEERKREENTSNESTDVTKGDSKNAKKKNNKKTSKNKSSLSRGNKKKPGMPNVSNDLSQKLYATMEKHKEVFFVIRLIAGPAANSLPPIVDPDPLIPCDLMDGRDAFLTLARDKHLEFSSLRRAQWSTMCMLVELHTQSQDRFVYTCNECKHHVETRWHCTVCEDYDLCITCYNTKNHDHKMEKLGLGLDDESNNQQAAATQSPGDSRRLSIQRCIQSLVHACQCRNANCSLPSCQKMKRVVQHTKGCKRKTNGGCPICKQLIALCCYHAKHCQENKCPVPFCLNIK

Compound: CCCC1(c2ccccc2)NC(=O)N(CC(=O)N(C)Cc2c(F)cccc2Cl)C1=O (stereo not drawn) [KB7, N-[(2-chloro-6-fluorophenyl)methyl]-2-(2,5-dioxo-4-phenyl-4-propylimidazolidin-1-yl)-N-methylacetamide]
- IC50 (Rtt109-Vps75): 0.0552 µM and ~0.056 µM
- enzyme reaction rate, % activity (Gcn5): ≥ 80%
- enzyme reaction rate, % activity (p300): ≥ 80%
